This is an account of results in PMC10421400, “Methoxylated Flavonols and ent-Kaurane Diterpenes from the South African Helichrysum rutilans and Their Cosmetic Potential” (Plants, 2023).

Where “and” joins values, the source holds several entries; their conditions need not be identical. Equal entries are not always repeated. Where two headings read alike, the source gives them in different places.

One test deals with T1, elastase (Sus scrofa, UniProt P00772).
T1 construct: purchased Sigma-Aldrich CAS No. 39445-21-1 (catalogue number not given); host or cells: porcine pancreas
Kind of test: Elastase inhibition assay. The class given is biochemical, porcine. The method, then: Inhibition of elastase by the test samples was assayed using N-succ-(Ala)3-nitroanilide (SANA) as the substrate, monitoring the release of p-nitroanilide by the method described with little adjustment. The inhibitory activity determined the intensity of color released during cleavage of SANA by the action of elastase. The working reagent for anti-elastase assay was prepared in line with the literature. […] The sample stock solutions were prepared as 1 mg in 1 mL methanol. […] The mixtures were further incubated for 10 min and the absorbance was measured at 410 nm. […] The sample control involved the sample and SANA (uninhibited sample). The percentage of elastase inhibition was calculated as follows: 1−B/A×100
Elastase inhibition (%), where A is the enzyme activity without sample and B is the activity in the presence of the sample.
(§1) The data presented are means ± SD obtained from 96-well plate readers for all in vitro experiments in triplicate. Differences between the means were considered to be significant if p < 0.05 according to Prism’s one-way ANOVA. The ORAC, FRAP, and TEAC values were determined using their respective templates. Correlation coefficients among the methods used for determining total antioxidant assays (FRAP, TEAC, and ORAC), as well as skin enzymes inhibitions (tyrosinase anf elastase), were determined using SPSS version 21. Values at p < 0.05 were considered significant.

Test [1] is described as follows: Ferric-ion-reducing antioxidant power (FRAP) assay. The following applies: ascorbic acid equivalents; sample stock 1 mg/mL; read at 593 nm after 30 min. The method, then:
Working FRAP reagent was prepared in accordance with the method described previously. In a 96-well clear microplate (visible range), 10 μL of the stock solution (1 mg/mL, w/v) of the isolated compounds (C-1–C-7) and a methanol extract (HR) were mixed each with 300 μL FRAP reagent. The FRAP reagent was a mixture (10:1:1, v/v/v) of acetate buffer (300 mM, pH 3.6), tripyridyl triazine (TPTZ) (10 mM in 40 mM HCl), and FeCl3·6H2O (20 mM). After incubation at room temperature for 30 min, the plate was read at a wavelength of 593 nm on a Multiskan spectrum plate reader. L-Ascorbic acid was used as a standard with concentrations varying between 0 and 1000 μM. Further dilutions were carried out on the samples that were highly concentrated and such dilution factors were recorded and used for the calculations of the affected samples. The results were expressed as μM ascorbic acid equivalents per milligram dry weight (μM AAE/g) of the test samples.

Test [2] can be described thus: Trolox equivalent absorbance capacity (TEAC) assay. As to conditions: trolox equivalents; sample stock 1 mg/mL; read at 734 nm after 30 min. The method, then:
The total antioxidant activity of the test sample was measured using previously described methods. The stock solutions which contained 7 mM ABTS and 140 mM potassium-peroxodisulphate (K2S2O8) (Merck, Johannesburg, South Africa) were prepared and kept at −2 °C. The working solution was then prepared by adding 88 μL K2S2O8 solution to 5 mL ABTS solution. The two solutions were thoroughly mixed and allowed to react for 24 h at room temperature in the dark. Trolox (6-hydrox-2,5,7,8-tetramethylchroman-2-carboxylic acid) was used as the standard with concentrations ranging between 0 and 500 μM. After 24 h, the ABTS mix solution was diluted with ethanol to read a start-up absorbance (control) of approximately 2.0 (±0.1). The stock solution (1 mg/mL) of a methanol extract (HT) and purified compounds (25 μL) were allowed to react with 300 μL ABTS in the dark at room temperature for 30 min. The absorbance was read at 734 nm at 25 °C on the plate reader. The results were expressed as μM trolox equivalents per milligram dry weight (μM TE/g) of the test samples.

Test [3] is described as follows: Automated ORAC assay, peroxyl radical (AAPH). The following applies: for ORAC peroxyl radical: scaled × 10^3; for ORAC Peroxyl: trolox equivalents, AAPH-generated peroxyl radical, fluorescein probe. On the procedure:
(§2) ORAC was carried out according to the previous method with some modifications. […] The analyzer was programmed to record the fluorescence of fluorescein every 2 min after AAPH, or H2O2-Cu^2+ was added. The fluorescein solution and sample were added to the wells of an illuminated 96-well plate, and 12 µL of each of our samples (in stock solution of 1 mg/mL) was combined with 138 µL of a fluorescein working solution followed by the addition of 50 µL of 150 mg of AAPH prepared in situ in 6 mL phosphate buffer. Absorbance was measured using the Fluoroskan spectrum plate reader with the excitation wavelength set at 485 nm and the emission wavelength at 530 nm. A calibration curve was established using a trolox stock solution of concentrations in the range of 83–417 µM (R^2 = 0.9514). The ORAC values were calculated using a regression equation (Y = a + bX + cX^2) between trolox concentration (Y in µM) and the net area under the fluorescence decay curve (X). ORAC values were expressed as micromoles of trolox equivalents (TEs) per milligram of test sample. Samples without a perfect curve were further diluted and the dilution factors were used for the result calculations of such samples.

Test [4] relates to Fe2+-induced lipid peroxidation in microsomes from an S9 liver fraction. Kind of test: Inhibition of Fe(II)-induced microsomal lipid peroxidation (TBARS). The following applies: TBARS at 532 nm, Table 2 head prints no unit, IC50 in µg/mL. The class given is biochemical. On the procedure:
A previously described method was used with a few modifications. The reaction mixture contained microsomes (1 mg of protein/mL in 0.01 M potassium phosphate buffer; pH 7.4, supplemented with 1.15% KCl, m/v) isolated from an S9 liver fraction using a sepharose column. The positive control included microsomes, buffer, and ferrous sulphate, in the absence of the samples to be tested.
The sample stock solutions (HR and C-1–C-7) were prepared in methanol (1 mg/mL, w/v). The working sample solutions were prepared in 0.01M potassium phosphate buffer, pH 7.4, supplemented with 1.15% KCl (m/v) diluted to 26.750, 13.375, 6.688, 3.344, 1.672, and 0.836 µg/mL concentrations. A total of 100 µL of each sample (working solutions) was dissolved in potassium phosphate buffer and pre-incubated with 500 µL microsomes at 37 °C for 30 min in a shaking water bath. A total of 200 µL of KCl buffer was added to the mixture, followed by 200 µL of a 2.5 mM ferrous sulphate solution and incubated at 37 °C for 1 h in a shaking water bath. The reaction was terminated with 10% trichloroacetic acid (TCA, m/v) solution (1 mL) containing 125 µL butylated hydroxytoluene (BHT, 0.01%) and 1 mM ethylenediaminetetraacetic acid (EDTA). Samples were centrifuged at 2000 rpm for 15 min; 1 mL of supernatant was mixed with 1 mL of 0.67% thiobarbituric acid (TBA) solution. The reaction mixture was then incubated in a water bath at 90 °C for 20 min and the absorbance was measured at 532 nm using Multiskan plate reader. EGCG, dissolved in methanol, was used as positive control. The percentage inhibition of TBARS formation relative to the positive control was calculated by Acontrol−Asample/Acontrol×100
as §1, with “All skin enzyme inhibitory assays and Fe^2+-induced lipid peroxidation assay calculations, expressed as percentage inhibitions ± SD, were performed using MS Excel 2013, while the final values, expressed as IC50, were determined using GraphPad prism 5.0. The data” for “The data”

The nature of test [5]: Automated ORAC assay, hydroxyl radical (H2O2-Cu2+). The following applies: trolox equivalents; H2O2-Cu2+-generated hydroxyl radical; fluorescein probe. The method, then: as §2
[6] abbreviates: porcine pancreatic elastase, SANA substrate, 410 nm, Table 3 head prints no unit, threshold 100 µg/mL, read-out: ELA (elastase inhibition).

T1 sequence (P00772 27-266): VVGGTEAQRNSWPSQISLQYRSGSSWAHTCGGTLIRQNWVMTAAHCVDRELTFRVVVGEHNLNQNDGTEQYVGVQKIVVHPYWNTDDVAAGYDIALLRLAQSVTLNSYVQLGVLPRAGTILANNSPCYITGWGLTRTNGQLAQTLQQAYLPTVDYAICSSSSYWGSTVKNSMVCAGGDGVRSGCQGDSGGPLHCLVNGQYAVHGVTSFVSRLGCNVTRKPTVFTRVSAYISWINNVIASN

On elastase, `O=c1cc(CO)occ1O` [KJA, kojic acid, reference compound] displayed an IC50 above 704 µM.

As for `COc1c(OC)c(O)c2c(=O)c(OC)c(-c3ccccc3)oc2c1OC` [Compound C-3, 5-hydroxy-3,6,7,8-tetramethoxyflavone], in test [1], the FRAP amounted to 1314.42 ± 2.42 µM AAE/g. Moreover, in test [2], the TEAC came out at 1378.10 ± 9.06 µM TE/g. Besides, in test [3], the ORAC peroxyl radical is given as 2.431 ± 8.63 × 10^3 µMTE/g and the “ORAC Peroxyl” value is on record as 2431.30 ± 8.63 µM TE/g. For the same compound, the “LPO (IC50, inhibition of Fe2+-induced lipid peroxidation)” value in test [4] was found to be 11.64 ± 1.72 µg/mL. On elastase (setting [6]), the IC50 was above 279 µM.

Regarding `O=C(O[C@@H]1Cc2c(O)cc(O)cc2O[C@@H]1c1cc(O)c(O)c(O)c1)c1cc(O)c(O)c(O)c1` [EGCG, Epigallocatechin gallate, reference compound], the FRAP in test [1] turned out to be 3326.45 ± 5.76 µM AAE/g. Also, the TEAC in test [2] is recorded as 11545.44 ± 17.28 µM TE/g. In test [3], the “ORAC Peroxyl” value was 14693.09 ± 5.53 µM TE/g. The “ORAC Hydroxyl” value in test [5] was 3.862 ± 4.65 × 10^6 µM TE/g. The “LPO (IC50, inhibition of Fe2+-induced lipid peroxidation)” value in test [4] stood at 0.929 ± 4.11 µg/mL.

In the case of `COc1c(O)c(OC)c2oc(-c3ccccc3)c(OC)c(=O)c2c1O` [Compound C-2, 5,7-dihydroxy-3,6,8-trimethoxyflavone], the FRAP in test [1] was 1402.62 ± 5.77 µM AAE/g. The TEAC in test [2] came out at 1276.11 ± 1.32 µM TE/g. In test [3], the ORAC peroxyl radical is reported as 2.935 ± 0.13 × 10^3 µMTE/g and the “ORAC Peroxyl” value was 2935.47 ± 0.13 µM TE/g. For the same compound, the “ORAC Hydroxyl” value in test [5] is listed as 2.413 ± 6.20 × 10^6 µM TE/g. In test [4], the “LPO (IC50, inhibition of Fe2+-induced lipid peroxidation)” value is 16.421 ± 0.92 µg/mL and 16.42 ± 0.92 µg/mL. For the same compound, at elastase (setting [6]), the IC50 is above 290 µM.

With `C=C1CC23CCC4C(C)(C(=O)O)CCCC4(C)C2CCC1C3` (stereo not drawn) [Compound C-5, ent-kaurenoic acid], in test [1], the FRAP turned out to be 19.66 ± 8.12 µM AAE/g. In test [2], the TEAC was 1105.00 ± 3.09 µM TE/g. Also, the “ORAC Peroxyl” value in test [3] came out at 364.44 ± 6.71 µM TE/g. Also, the “ORAC Hydroxyl” value in test [5] is 0.429 ± 12.00 × 10^6 µM TE/g. Moreover, the “LPO (IC50, inhibition of Fe2+-induced lipid peroxidation)” value in test [4] is given as above 100 µg/mL. Further, the IC50 at elastase (setting [6]) is above 331 µM.

With `COc1cc2oc(-c3ccccc3)c(OC)c(=O)c2c(O)c1OC` [Compound C-4, 5-hydroxy-3,6,7-trimethoxyflavone], the FRAP in test [1] stood at 1119.44 ± 11.89 µM AAE/g. Also, in test [2], the TEAC came out at 1207.11 ± 7.21 µM TE/g. In test [3], the ORAC peroxyl radical is 2.814 ± 5.20 × 10^3 µMTE/g and the “ORAC Peroxyl” value is given as 2814.51 ± 5.20 µM TE/g. Also, in test [5], the “ORAC Hydroxyl” value is on record as 1.917 ± 3.91 × 10^6 µM TE/g. Moreover, the “LPO (IC50, inhibition of Fe2+-induced lipid peroxidation)” value in test [4] came out at 14.90 ± 0.06 µg/mL. In addition, the IC50 on elastase (setting [6]) was above 305 µM.

On to `C=C1C2CCC3C4(C)CCCC(C)(C(=O)O)C4CCC3(C2)C1O` (stereo not drawn) [Compound C-7, 15-α-hydroxy-(-)-ent-kaur-16-en-19-oic acid], for which, in test [1], the FRAP is recorded as 60.90 ± 7.90 µM AAE/g. In addition, the TEAC in test [2] was determined as 1424.51 ± 0.70 µM TE/g. Moreover, the “ORAC Peroxyl” value in test [3] is 93.10 ± 13.68 µM TE/g. In addition, the “ORAC Hydroxyl” value in test [5] was 0.845 ± 13.34 × 10^6 µM TE/g. The “LPO (IC50, inhibition of Fe2+-induced lipid peroxidation)” value in test [4] is above 100 µg/mL. Further, the IC50 on elastase (setting [6]) is above 314 µM.

In the case of `C/C=C(\C)C(=O)Oc1c(O)c(OC)c(O)c2c(=O)c(OC)c(-c3ccccc3)oc12` [Compound C-1, 5,7,8-trihydroxy-3,6-dimethoxyflavone-8-O-2-methyl-2-butanoate], the FRAP in test [1] is 1251.45 ± 4.18 µM AAE/g. For the same compound, in test [2], the TEAC turned out to be 1131.80 ± 6.41 µM TE/g. Also, the “ORAC Peroxyl” value in test [3] came to 3523.51 ± 3.22 µM TE/g. The “ORAC Hydroxyl” value in test [5] is 2.114 ± 4.01 × 10^6 µM TE/g. In addition, the “LPO (IC50, inhibition of Fe2+-induced lipid peroxidation)” value in test [4] was found to be 13.123 ± 0.34 µg/mL. For the same compound, the IC50 at elastase (setting [6]) was above 242 µM.
